Results taken from the kinase profiling compilation of Christmann-Franck et al. (2016).

Legend:
Assay in all cases: radiometric filter-binding kinase assay, Kinase HotSpot
Settings in all cases: compound 0.5 µM; ATP 10 µM
OXSR1 (human) = OXSR1 (human) (UniProt O95747)
CDK6 CCND3 (human) = CDK6 CCND3 (human) (UniProt P30281+Q00534)
MINK1 (human) = MINK1 (human) (UniProt Q8N4C8)
ULK2 (human) = ULK2 (human) (UniProt Q8IYT8)
ITK (human) = ITK (human) (UniProt Q08881)
CDK3 CCNE1 (human) = CDK3 CCNE1 (human) (UniProt Q00526+P24864)
BRSK1 (human) = BRSK1 (human) (UniProt Q8TDC3)
BRSK1 (human), sequence (Q8TDC3 whole entry, looked up): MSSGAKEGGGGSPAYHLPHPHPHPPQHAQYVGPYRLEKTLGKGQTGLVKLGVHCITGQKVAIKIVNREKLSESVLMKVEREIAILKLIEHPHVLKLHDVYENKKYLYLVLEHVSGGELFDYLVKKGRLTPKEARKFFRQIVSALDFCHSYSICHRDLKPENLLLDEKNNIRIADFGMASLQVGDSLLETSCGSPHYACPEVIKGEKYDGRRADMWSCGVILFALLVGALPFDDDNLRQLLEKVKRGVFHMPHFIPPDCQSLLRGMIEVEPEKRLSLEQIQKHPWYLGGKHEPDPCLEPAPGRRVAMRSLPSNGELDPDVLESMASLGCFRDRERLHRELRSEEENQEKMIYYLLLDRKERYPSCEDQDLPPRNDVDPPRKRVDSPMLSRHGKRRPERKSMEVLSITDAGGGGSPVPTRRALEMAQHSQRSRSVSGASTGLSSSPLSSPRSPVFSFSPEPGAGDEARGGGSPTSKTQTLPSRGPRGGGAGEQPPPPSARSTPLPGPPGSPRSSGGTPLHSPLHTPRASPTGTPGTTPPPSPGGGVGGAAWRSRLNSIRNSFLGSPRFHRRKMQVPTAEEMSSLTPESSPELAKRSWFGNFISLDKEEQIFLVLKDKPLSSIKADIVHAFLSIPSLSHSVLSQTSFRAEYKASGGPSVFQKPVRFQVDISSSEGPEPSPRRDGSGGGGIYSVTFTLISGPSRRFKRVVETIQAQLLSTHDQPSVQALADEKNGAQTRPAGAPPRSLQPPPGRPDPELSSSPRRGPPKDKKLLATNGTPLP

RPS6KA1 KD1 KD2 (human) = RPS6KA1 KD1 KD2 (human) (UniProt Q15418)
TEK (human) = TEK (human) (UniProt Q02763)
PRKCA (human) = PRKCA (human) (UniProt P17252)
RET (human) = RET (human) (UniProt P07949)
MAP4K4 (human) = MAP4K4 (human) (UniProt O95819)
CAMK4 (human) = CAMK4 (human) (UniProt Q16566)
MATK (human) = MATK (human) (UniProt P42679)
GSK3A (human) = GSK3A (human) (UniProt P49840)
IKBKB (human) = IKBKB (human) (UniProt O14920)
CAMK2B (human) = CAMK2B (human) (UniProt Q13554)
MAP4K5 (human) = MAP4K5 (human) (UniProt Q9Y4K4)
MAP4K5 (human), sequence (Q9Y4K4 whole entry, looked up): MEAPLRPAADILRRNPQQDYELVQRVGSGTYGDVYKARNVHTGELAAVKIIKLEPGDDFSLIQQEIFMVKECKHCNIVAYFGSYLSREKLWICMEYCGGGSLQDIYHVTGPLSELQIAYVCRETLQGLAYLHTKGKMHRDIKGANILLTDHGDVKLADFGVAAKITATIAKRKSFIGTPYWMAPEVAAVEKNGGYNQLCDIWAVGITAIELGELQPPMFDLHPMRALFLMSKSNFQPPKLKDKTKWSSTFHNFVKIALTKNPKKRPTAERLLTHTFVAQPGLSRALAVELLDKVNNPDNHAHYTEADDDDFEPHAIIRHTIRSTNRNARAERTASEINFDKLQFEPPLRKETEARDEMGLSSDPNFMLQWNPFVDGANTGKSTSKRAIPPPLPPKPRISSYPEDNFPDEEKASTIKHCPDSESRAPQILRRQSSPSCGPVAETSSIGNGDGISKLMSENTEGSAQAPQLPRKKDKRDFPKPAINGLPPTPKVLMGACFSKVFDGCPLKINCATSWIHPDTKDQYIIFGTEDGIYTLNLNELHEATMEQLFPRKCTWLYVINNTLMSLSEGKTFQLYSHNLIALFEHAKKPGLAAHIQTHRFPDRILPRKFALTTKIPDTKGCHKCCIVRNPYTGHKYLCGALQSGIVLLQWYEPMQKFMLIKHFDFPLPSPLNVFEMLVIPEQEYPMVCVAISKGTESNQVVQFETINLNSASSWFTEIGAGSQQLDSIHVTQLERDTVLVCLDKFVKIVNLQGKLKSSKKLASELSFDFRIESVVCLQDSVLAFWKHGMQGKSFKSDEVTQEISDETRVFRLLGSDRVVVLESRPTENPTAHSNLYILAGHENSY

PRKCI (human) = PRKCI (human) (UniProt P41743)
TYRO3 (human) = TYRO3 (human) (UniProt Q06418)
EPHA5 (human) = EPHA5 (human) (UniProt P54756)
PRKG2 (human) = PRKG2 (human) (UniProt Q13237)
CSF1R (human) = CSF1R (human) (UniProt P07333)
MAP2K2 (human) = MAP2K2 (human) (UniProt P36507)
MUSK (human) = MUSK (human) (UniProt O15146)
TSSK1B (human) = TSSK1B (human) (UniProt Q9BXA7)
PIM2 (human) = PIM2 (human) (UniProt Q9P1W9)
MAPKAPK2 (human) = MAPKAPK2 (human) (UniProt P49137)
NEK1 (human) = NEK1 (human) (UniProt Q96PY6)
SIK2 (human) = SIK2 (human) (UniProt Q9H0K1)
PIM3 (human) = PIM3 (human) (UniProt Q86V86)
PASK (human) = PASK (human) (UniProt Q96RG2)
[1] = target: JAK1 JH1 catalytic (human) (UniProt P23458)
MAPK10 (human) = MAPK10 (human) (UniProt P53779)
STK3 (human) = STK3 (human) (UniProt Q13188)
STK3 (human), sequence (Q13188 whole entry, looked up): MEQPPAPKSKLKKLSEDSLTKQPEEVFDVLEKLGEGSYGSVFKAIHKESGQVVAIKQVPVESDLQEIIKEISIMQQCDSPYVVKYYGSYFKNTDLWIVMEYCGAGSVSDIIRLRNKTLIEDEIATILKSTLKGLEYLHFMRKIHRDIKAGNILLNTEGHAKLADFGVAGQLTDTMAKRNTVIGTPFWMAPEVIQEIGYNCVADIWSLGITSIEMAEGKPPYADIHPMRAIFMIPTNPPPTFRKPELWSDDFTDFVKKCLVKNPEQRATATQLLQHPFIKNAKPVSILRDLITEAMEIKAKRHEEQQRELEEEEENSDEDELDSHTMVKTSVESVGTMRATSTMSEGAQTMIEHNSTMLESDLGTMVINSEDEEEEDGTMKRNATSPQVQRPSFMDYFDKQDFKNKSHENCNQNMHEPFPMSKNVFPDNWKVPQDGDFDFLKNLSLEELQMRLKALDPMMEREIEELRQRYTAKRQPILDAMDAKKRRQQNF

RPS6KA2 KD1 KD2 (human) = RPS6KA2 KD1 KD2 (human) (UniProt Q15349)
RPS6KA2 KD1 KD2 (human), sequence (Q15349 whole entry, looked up): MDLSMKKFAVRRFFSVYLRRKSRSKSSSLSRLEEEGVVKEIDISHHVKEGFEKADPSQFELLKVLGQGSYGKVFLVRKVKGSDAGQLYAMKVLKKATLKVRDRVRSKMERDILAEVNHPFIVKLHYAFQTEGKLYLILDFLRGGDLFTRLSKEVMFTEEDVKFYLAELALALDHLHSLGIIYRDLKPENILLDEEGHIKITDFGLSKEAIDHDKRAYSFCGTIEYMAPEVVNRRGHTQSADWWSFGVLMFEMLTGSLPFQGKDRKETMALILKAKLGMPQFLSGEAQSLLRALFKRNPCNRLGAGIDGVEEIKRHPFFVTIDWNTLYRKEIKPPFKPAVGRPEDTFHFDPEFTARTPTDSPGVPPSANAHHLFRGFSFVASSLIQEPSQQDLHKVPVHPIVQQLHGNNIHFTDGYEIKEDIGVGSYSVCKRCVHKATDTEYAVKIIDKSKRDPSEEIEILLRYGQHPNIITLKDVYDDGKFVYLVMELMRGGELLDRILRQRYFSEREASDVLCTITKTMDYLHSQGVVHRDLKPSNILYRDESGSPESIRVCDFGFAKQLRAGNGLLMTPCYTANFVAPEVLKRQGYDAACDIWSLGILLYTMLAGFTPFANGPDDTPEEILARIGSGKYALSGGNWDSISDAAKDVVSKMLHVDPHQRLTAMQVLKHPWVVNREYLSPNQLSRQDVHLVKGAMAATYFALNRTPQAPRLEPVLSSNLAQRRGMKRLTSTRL

MST1R (human) = MST1R (human) (UniProt Q04912)
MAP3K10 (human) = MAP3K10 (human) (UniProt Q02779)
MAP3K10 (human), sequence (Q02779 whole entry, looked up): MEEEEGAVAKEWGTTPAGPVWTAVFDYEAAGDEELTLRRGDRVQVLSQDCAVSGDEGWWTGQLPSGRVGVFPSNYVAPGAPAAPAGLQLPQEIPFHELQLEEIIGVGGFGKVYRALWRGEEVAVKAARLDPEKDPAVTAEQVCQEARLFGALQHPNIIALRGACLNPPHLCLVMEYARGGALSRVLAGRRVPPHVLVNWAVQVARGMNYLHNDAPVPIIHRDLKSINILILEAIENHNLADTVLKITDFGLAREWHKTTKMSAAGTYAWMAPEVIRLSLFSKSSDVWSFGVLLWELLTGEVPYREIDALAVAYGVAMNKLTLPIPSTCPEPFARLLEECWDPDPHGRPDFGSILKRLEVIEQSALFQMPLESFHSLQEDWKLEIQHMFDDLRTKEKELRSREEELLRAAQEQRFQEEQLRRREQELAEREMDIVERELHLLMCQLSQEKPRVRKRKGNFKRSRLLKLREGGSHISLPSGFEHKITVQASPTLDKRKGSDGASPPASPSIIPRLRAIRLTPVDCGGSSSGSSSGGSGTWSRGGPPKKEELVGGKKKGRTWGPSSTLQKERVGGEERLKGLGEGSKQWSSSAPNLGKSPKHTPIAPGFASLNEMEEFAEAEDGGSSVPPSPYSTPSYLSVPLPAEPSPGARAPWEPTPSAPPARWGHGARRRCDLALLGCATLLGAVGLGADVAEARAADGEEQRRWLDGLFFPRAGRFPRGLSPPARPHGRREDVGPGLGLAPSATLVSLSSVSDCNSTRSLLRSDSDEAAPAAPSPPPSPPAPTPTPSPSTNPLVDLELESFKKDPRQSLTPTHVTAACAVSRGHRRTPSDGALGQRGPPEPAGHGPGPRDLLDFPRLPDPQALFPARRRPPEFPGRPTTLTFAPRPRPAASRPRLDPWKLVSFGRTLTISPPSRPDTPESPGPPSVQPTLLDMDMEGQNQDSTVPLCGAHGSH

RIPK2 (human) = RIPK2 (human) (UniProt O43353)
SGK3 (human) = SGK3 (human) (UniProt Q96BR1)
SGK3 (human), sequence (Q96BR1 whole entry, looked up): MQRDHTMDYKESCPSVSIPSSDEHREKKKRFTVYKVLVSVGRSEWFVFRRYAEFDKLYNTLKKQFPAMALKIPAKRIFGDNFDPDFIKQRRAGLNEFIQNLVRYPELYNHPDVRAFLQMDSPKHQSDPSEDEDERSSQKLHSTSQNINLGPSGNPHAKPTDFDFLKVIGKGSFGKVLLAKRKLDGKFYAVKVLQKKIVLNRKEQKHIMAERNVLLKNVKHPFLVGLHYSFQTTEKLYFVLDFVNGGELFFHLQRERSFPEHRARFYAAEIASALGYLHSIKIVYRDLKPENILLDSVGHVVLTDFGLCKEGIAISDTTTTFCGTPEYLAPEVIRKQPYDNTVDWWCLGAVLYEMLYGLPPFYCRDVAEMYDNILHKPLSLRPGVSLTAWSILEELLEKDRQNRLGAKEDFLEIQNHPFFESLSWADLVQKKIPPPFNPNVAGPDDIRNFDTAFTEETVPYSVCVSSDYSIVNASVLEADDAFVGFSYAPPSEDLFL

FES (human) = FES (human) (UniProt P07332)

ITK (human), sequence (Q08881 whole entry, looked up): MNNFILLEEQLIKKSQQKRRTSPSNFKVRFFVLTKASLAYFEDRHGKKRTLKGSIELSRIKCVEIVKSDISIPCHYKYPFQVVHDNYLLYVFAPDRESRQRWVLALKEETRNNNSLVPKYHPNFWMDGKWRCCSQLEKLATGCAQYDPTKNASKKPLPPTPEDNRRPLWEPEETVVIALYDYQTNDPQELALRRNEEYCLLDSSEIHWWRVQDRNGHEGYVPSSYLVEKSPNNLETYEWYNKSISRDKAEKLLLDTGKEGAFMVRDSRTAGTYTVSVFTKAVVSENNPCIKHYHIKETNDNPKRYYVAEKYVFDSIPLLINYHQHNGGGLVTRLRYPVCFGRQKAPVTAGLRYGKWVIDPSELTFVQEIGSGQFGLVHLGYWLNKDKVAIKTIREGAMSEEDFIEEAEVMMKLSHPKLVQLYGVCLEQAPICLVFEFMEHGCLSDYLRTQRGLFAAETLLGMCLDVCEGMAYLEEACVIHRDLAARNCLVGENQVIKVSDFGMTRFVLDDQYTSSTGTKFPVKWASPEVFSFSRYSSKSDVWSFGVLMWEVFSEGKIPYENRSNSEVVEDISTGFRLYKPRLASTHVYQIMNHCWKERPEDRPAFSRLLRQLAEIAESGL

| Structure (SMILES) | residual activity (CDK6 CCND3 (human)) [%] | residual activity (MINK1 (human)) [%] | residual activity (ULK2 (human)) [%] | residual activity (ITK (human)) [%] | residual activity (CDK3 CCNE1 (human)) [%] | residual activity (BRSK1 (human)) [%] | residual activity (RPS6KA1 KD1 KD2 (human)) [%] | residual activity (TEK (human)) [%] | residual activity (PRKCA (human)) [%] | residual activity (RET (human)) [%] | residual activity (MAP4K4 (human)) [%] | residual activity (CAMK4 (human)) [%] | residual activity (MATK (human)) [%] | residual activity (CAMK2B (human)) [%] | residual activity (MAP4K5 (human)) [%] | residual activity (PRKCI (human)) [%] | residual activity (TYRO3 (human)) [%] | residual activity (EPHA5 (human)) [%] | residual activity (PRKG2 (human)) [%] | residual activity (MAP2K2 (human)) [%] | further results |
| --- | --- | --- | --- | --- | --- | --- | --- | --- | --- | --- | --- | --- | --- | --- | --- | --- | --- | --- | --- | --- | --- |
| CCN(CC)CCNC(=O)c1c(C)[nH]c(/C=C2\C(=O)Nc3ccc(F)cc32)c1C | 59.7 | 10.5 | 40.3 | 64.3 | 91 | 45.1 | 28 | 88.6 | 79.9 | 3.43 | 12.4 | 88.6 | 88.8 | 46.7 | 4.06 | 103 | 28.3 | 87.6 | 96.1 | 25.4 | residual activity (OXSR1 (human)): 105%; residual activity (GSK3A (human)): 85.5%; residual activity (IKBKB (human)): 81%; residual activity (CSF1R (human)): 7.28%; residual activity (MUSK (human)): 51.3%; residual activity (TSSK1B (human)): 20.7%; residual activity (PIM2 (human)): 97.2%; residual activity (MAPKAPK2 (human)): 93.2%; residual activity (NEK1 (human)): 72.6%; residual activity (SIK2 (human)): 27.8%; residual activity (PIM3 (human)): 56.8%; residual activity (PASK (human)): 102%; residual activity [1]: 71.9%; residual activity (MAPK10 (human)): 99.5%; residual activity (STK3 (human)): 24.8%; residual activity (RPS6KA2 KD1 KD2 (human)): 17.3%; residual activity (MST1R (human)): 92%; residual activity (MAP3K10 (human)): 104%; residual activity (RIPK2 (human)): 104%; residual activity (SGK3 (human)): 101% |
| O=S(=O)(c1cccc2cnccc12)N1CCCNCC1 | 95.8 | 96.6 | 101 | 90.7 | 76.6 | 97.5 | 89.2 | 98.4 | 94.8 | 97.8 | 44.1 | 92.9 | 99.6 | 93.2 | 36.3 | 87.2 | 87.9 | 90.5 | 98.9 | 117 | residual activity (CSF1R (human)): 97.9%; residual activity (MUSK (human)): 97.6%; residual activity (TSSK1B (human)): 93.5%; residual activity (PIM2 (human)): 93.2%; residual activity (MAPKAPK2 (human)): 101%; residual activity (NEK1 (human)): 90.3%; residual activity (SIK2 (human)): 97.7%; residual activity (PIM3 (human)): 91.4%; residual activity (PASK (human)): 97.1%; residual activity [1]: 111%; residual activity (MAPK10 (human)): 85.3%; residual activity (STK3 (human)): 90%; residual activity (RPS6KA2 KD1 KD2 (human)): 79.9%; residual activity (MST1R (human)): 92.7%; residual activity (MAP3K10 (human)): 88.3%; residual activity (FES (human)): 121%; residual activity (RIPK2 (human)): 86.4%; residual activity (SGK3 (human)): 91.6% |
| CNC(=O)c1cc(Oc2ccc(NC(=O)Nc3ccc(Cl)c(C(F)(F)F)c3)cc2)ccn1 | 104 | 108 | 106 | 106 | 96.5 | 95.8 | 101 | 104 | 96.8 | 1.78 | 96.1 | 107 | 114 | 96.7 | 57 | 89.9 | 91.7 | 99.4 | 90.9 | 89.7 | residual activity (OXSR1 (human)): 103%; residual activity (GSK3A (human)): 103%; residual activity (IKBKB (human)): 88.3%; residual activity (MUSK (human)): 101%; residual activity (TSSK1B (human)): 98.7%; residual activity (PIM2 (human)): 103%; residual activity (MAPKAPK2 (human)): 100%; residual activity (NEK1 (human)): 88.8%; residual activity (SIK2 (human)): 102%; residual activity (PIM3 (human)): 100%; residual activity (PASK (human)): 99.5%; residual activity [1]: 110%; residual activity (MAPK10 (human)): 94.2%; residual activity (STK3 (human)): 96.9%; residual activity (RPS6KA2 KD1 KD2 (human)): 93.3%; residual activity (MST1R (human)): 97.6%; residual activity (MAP3K10 (human)): 104%; residual activity (FES (human)): 104%; residual activity (RIPK2 (human)): 86.2%; residual activity (SGK3 (human)): 101% |
